Test results from patent US5824647A, “Chemotactic wound healing peptides” (priority 1995, dated 1998).

Key:
[1] = system: infant foreskin fibroblasts; assay: Collagen production by fibroblasts (modified Peterofsky-Diegelman assay); assay type: cell-based, human; parameters: key to FIBROBLAST EFFECTS Collagen: NE = No Effect
Method: The peptides of the invention were also found to stimulate collagen production by fibroblasts. Collagen production by fibroblasts in response to the peptides of the present invention was measured utilizing a modified Peterofsky-Diegelman assay. The assay is used to determine whether the peptides of the invention stimulate or inhibit collagen production by fibroblasts.
Low passage (4-12 subpassages) infant foreskin fibroblasts were plated out at a density of 10^5 cells/well in Falcon 3008 multiwell plates in complete maintenance medium containing 10% FCS. After cells reached confluency (72 hr), the medium was changed daily for 3 days, each time being replaced with serum-free maintenance medium containing fresh ascorbic acid. Samples (50 μl) were added to triplicate wells containing 450 μl serum-free MEM supplemented with fresh ascorbic acid and [^3 H]-proline (sp. act. 20 Ci/mmole), but no non-essential amino acids. After an additional 24 hr of culture, supernatants were reacted with protease-free bacterial collagenase to digest all collagen. Similar aliquots of unreacted supernatants and bacterial collagenase-treated supernatants were precipitated with cold 10% trichloroacetic acid (TCA) and were centrifuged for 5 minutes in a Beckman microfuge. Aliquots of the supernatants, after TCA precipitated proteins were pelleted, were placed in vials containing Hydrofluor and then were counted in a scintillation counter. CPM from TCA precipitated supernatants not reacted with bacterial collagenase were subtracted from each culture. The resulting CPM was a reflection of the collagen produced by that culture.
A modified Peterofsky-Diegelmann assay was used to screen peptide samples for their ability to stimulate or inhibit collagen production. Low passage (4-12 subpassages) infant foreskin fibroblast were plated out at a density of 10^5 cells/well of Falcon 3008 multiwell plates in complete maintenance medium containing 10% FCS. After cells reached confluency (72 hr) the medium was changed daily for 3 days, each time being replaced with serum-free maintenance medium containing fresh ascorbic acid. Samples ([…]) were added to triplicate wells containing […] serum free MEM supplemented with fresh ascorbic acid and [^3 H]-proline (sp. act. 20 Ci/mmole), but no non-essential amino acids. After an additional 24 hours of culture, supernatants were reacted with protease-free bacterial collagenase to digest all collagen. Similar aliquots of unreacted supernatants and bacterial collagenase-treated supernatants were precipitated with cold 10% trichloroacetic acid (TCA) and were centrifuged for 5 minutes in a Beckman microfuge. Aliquots of the supernatants, after TCA precipitated proteins were pelleted, were placed in vials containing Hydrofluor and then were counted in a scintillation counter. CPM from TCA precipitated supernatants not reacted with bacterial collagenase were subtracted from each culture. The resulting CPM was a reflection of the collagen produced by that culture.
Collagen production was measured following administration of the various 7-mer peptides 368-374 (SEQ ID NOs. 1-5) to fibroblasts. Peptides […] (SEQ ID NO. 1), LYYIGKT (SEQ ID NO. 2), LYYVGRT (SEQ ID NO. 3), IYYVGRN (SEQ ID NO. 4) and IYYVGRT (SEQ ID NO. 5) were synthesized by the Merrifield technique, purified by HPLC, and tested at different concentrations in the same assay for their ability to stimulate production of collagen in confluent cultures of infant foreskin fibroblasts. Collagen production was measured by incorporation of [^3 H]proline into collagenase-sensitive protein. All samples were tested in triplicate, and values represent the mean of triplicate determinations. Data are expressed as "% stimulation" of collagen production relative to control production in cultures with plain culture medium only added. […]

[2] = system: fibroblasts; assay: HLA-DR, fibroblast effects; assay type: cell-based; parameters: key: NE = No Effect; conditions: Table II summary
[3] = system: human peripheral blood monocytes; assay: Monocyte chemotaxis in modified Boyden chambers; assay type: cell-based; parameters: key to Monocyte Migration: NE = No Effect
Description: Human peripheral blood neutrophils and monocytes, isolated from whole blood using standard techniques may also be used in the chemotaxis assays, in a manner similar to infant foreskin fibroblasts, to measure the chemotactic activity of the peptides towards inflammatory cells. Such cells may also be maintained in supplemented MEM as above, to which 5-10% FCS may be added. When using neutrophils and monocytes, instead of fibroblasts, the polycarbonate filters used in the modified Boyden chambers had pore sizes of 2 and 3 microns, respectively. As above, all assays were carried out in quadruplicate.
The following 7-mer peptides (peptides 368-374, corresponding to amino acids 368-374 of human TGF-β1): VYYVGRK (SEQ ID NO. 1), LYYIGKT (SEQ ID NO. 2), LYYVGRT (SEQ ID NO. 3), IYYVGRN (SEQ ID NO. 4) and IYYVGRT (SEQ ID NO. 5) were synthesized by the Merrifield technique, purified by HPLC, and tested at different concentrations in the same assay for their ability to stimulate chemotaxis of human peripheral blood monocytes in vitro modified Boyden chambers.

[4] = system: infant foreskin fibroblasts; assay: Fibroblast chemotaxis in modified Boyden chambers (incl. checkerboard and deactivation studies); assay type: cell-based, human; parameters: key to FIBROBLAST EFFECTS Migration: NE = No Effect
Method: Target cells used in in vitro chemotaxis assays were infant foreskin fibroblasts obtained by establishing monolayer cultures from explants of tissue. Cells were maintained in Eagle's minimum essential medium (MEM) supplemented with non-essential amino acids, antibiotics, 50 ug/ml ascorbic acid, and 9% fetal calf serum (FCS). Cells were passaged by trypsinization every 3-5 days.
Infant foreskin fibroblasts were harvested from monolayer culture by gentle trypsinization, washed twice in serum-free Eagles's MEM and adjusted to a final concentration of 250,000 cells/ml. The cell suspension (0.4 ml) was added to the upper compartments of blind well modified Boyden chemotaxis chambers. The peptides of the invention being assayed for chemotactic activity were solubilized in glycylglycine (0.015M) buffered NaCl (0.14M), pH 7.2, hereinafter referred to as GGBS, and diluted 50% with serum-free MEM. Test substances were added to the lower compartment of the chemotaxis chambers. Gelatin-treated polycarbonate filters (8 micron pore size) were interposed between the lowest compartment and the upper cell compartment. Loaded chambers were incubated at 37° C. in a humidified atmosphere containing 5% CO2 for 150 minutes. After incubation, the chambers were disassembled, the filters removed, stained with hematoxylin, and mounted on glass cover slips. Fibroblast chemotaxis was quantitated by counting the number of fibroblasts in 20 oil immersion fields (OIF) that migrated and adhered to the lower surface of each filter. Samples were tested in quadruplicate and results are expressed as mean number of fibroblasts per 20 OIF±standard error of the mean (SEM). Chemotaxis neutralization studies were performed by adding TGF-β1 or fibronectin to the upper cell compartment and testing for effects on fibroblast migration to the TGF-β peptides.
Zigmond-Hirsch checkerboard analysis (Zigmond & Hirsch, J. Exptl. Med. 137:387, 1972) was performed to determine whether the 7-mer peptide 368-374 (Val Tyr Tyr Val Gly Arg Lys) induced chemotaxis of fibroblasts, monocytes and neutrophils.
Deactivation studies were utilized to determine whether the peptides of the invention containing the 7-mer peptide amino acid sequence induced chemotaxis via cellular receptors and mechanisms utilized by intact TGF-β.

[5] = system: fibroblasts; assay: Hyaluronate production by fibroblasts; assay type: cell-based; parameters: key to FIBROBLAST EFFECTS Hyaluronate: NE = No Effect; conditions: Table II summary
[6] = system: infant foreskin fibroblasts; assay: Collagen production by fibroblasts (modified Peterofsky-Diegelman assay); assay type: cell-based, human; conditions: [3H]proline incorporation into collagenase-sensitive protein; listed as LYYIGRT
[7] = peptide in lower compartment of modified Boyden chamber

Substance	FIBROBLAST EFFECTS Collagen ([1]; Table II summary)	FIBROBLAST EFFECTS HLA-DR [2]	Monocyte Migration ([3]; Table II summary)	FIBROBLAST EFFECTS Migration ([4]; Table II summary)	FIBROBLAST EFFECTS Hyaluronate [5]	collagen production by fibroblasts (in words) [6]	collagen production by fibroblasts (in words) ([1]; [3H]proline incorporation into collagenase-sensitive protein)	monocyte chemotaxis / migration (in words) [3, 7]	fibroblast chemotaxis / migration (in words) [4, 7]
280-339: synthetic peptide 280-339, corresponds to the amino terminal portion of TGF-β1 monomer (ALDTNYCFSSTEKNCCVRQLYIDFRKDLGWKWIHEPKGYHANFCLGPCPYIWSLDTQYSK; printed: Ala Leu Asp Thr Asn Tyr Cys Phe Ser Ser Thr Glu Lys Asn Cys Cys Val Arg Gln Leu Tyr Ile Asp Phe Arg Lys Asp Leu Gly Trp Lys Trp Ile His Glu Pro Lys Gly Tyr His Ala Asn Phe Cys Leu Gly Pro Cys Pro Tyr Ile Trp Ser Leu Asp Thr Gln Tyr Ser Lys)	NE	NE	NE	NE	NE				
LYYIGKT [7-mer peptide 368-374 homolog]						stimulated collagen production	stimulated collagen production to some degree	induced monocyte chemotaxis at all of the concentrations tested	induced fibroblast chemotaxis at all of the concentration tested
